Measurements from ChEMBL document CHEMBL3880421, “Indazole compounds and pharmaceutical compositions for inhibiting protein kinases, and methods for their use” (2003).

Tests used:
[1] = Antiproliferative activity against VEGF-stimulated HUVEC cells assessed as reduction in cell viability at 0.5 nM preincubated for 1 hr followed by addition of VEGF measured after 72 hrs by MTT assay; assay type: functional; conditions: Homo sapiens
[2] = Antiproliferative activity against VEGF-stimulated HUVEC cells assessed as reduction in cell viability at 2 nM preincubated for 1 hr followed by addition of VEGF measured after 72 hrs by MTT assay; assay type: functional; conditions: Homo sapiens

Row | Compound | inhibition at 0.0005 µM [1] [%] | inhibition at 0.002 µM [2] [%]
1 | CSc1nc(NC(=O)c2ccccc2Nc2ccc3c(/C=C/c4ccccn4)n[nH]c3c2)nn1C | 16 | 2
2 | O=C(NCCc1c[nH]cn1)c1ccccc1Nc1ccc2c(/C=C/c3ccccn3)n[nH]c2c1 | 23 | -32
3 | O=C(NCCCO)c1ccccc1Nc1ccc2c(/C=C/c3ccccn3)n[nH]c2c1 | 8 to 24 | 23 to 31
4 | O=C(NN1CCN(CCO)CC1)c1ccccc1Nc1ccc2c(/C=C/c3ccccn3)n[nH]c2c1 | 25 | 25
5 | NC(=O)[C@H]1CCCC[C@H]1NC(=O)c1ccccc1Nc1ccc2c(/C=C/c3ccccn3)n[nH]c2c1 | 21 | 39
6 | CCN(CC)C/C=C/CNC(=O)c1ccccc1Nc1ccc2c(/C=C/c3ccccn3)n[nH]c2c1 | 10 | 29
7 | O=C(NCCCCO)c1ccccc1Nc1ccc2c(/C=C/c3ccccn3)n[nH]c2c1 | 35 | 40
8 | O=C(NCCc1ccccn1)c1ccccc1Nc1ccc2c(/C=C/c3ccccn3)n[nH]c2c1 | 49 | 91
9 | O=C(NNC1=NCCN1)c1ccccc1Nc1ccc2c(/C=C/c3ccccn3)n[nH]c2c1 | 34 | 69
10 | CCC(C)CNC(=O)c1ccccc1Nc1ccc2c(/C=C/c3ccccn3)n[nH]c2c1 (stereo not given) | 24 | 84
11 | O=C(NCCC1OCCO1)c1ccccc1Nc1ccc2c(/C=C/c3ccccn3)n[nH]c2c1 | 38 | 68
12 | CC(=O)NNC(=O)c1ccccc1Nc1ccc2c(/C=C/c3ccccn3)n[nH]c2c1 | 4 | 10
13 | CCOCCNC(=O)c1ccccc1Nc1ccc2c(/C=C/c3ccccn3)n[nH]c2c1 | 53 | 75
14 | O=C(Nn1cnnc1)c1ccccc1Nc1ccc2c(/C=C/c3ccccn3)n[nH]c2c1 | 17 | 13
15 | Cc1ccc(N(C)NC(=O)c2ccccc2Nc2ccc3c(/C=C/c4ccccn4)n[nH]c3c2)nn1 | 18 | -3
16 | O=C(NCC(O)CO)c1ccccc1Nc1ccc2c(/C=C/c3ccccn3)n[nH]c2c1 (stereo not given) | 22 | 20
17 | O=C(NCCCN1CCCC1)c1ccccc1Nc1ccc2c(/C=C/c3ccccn3)n[nH]c2c1 | 20 | 2
18 | O=C(Nc1nc2ccccc2[nH]1)c1ccccc1Nc1ccc2c(/C=C/c3ccccn3)n[nH]c2c1 | 18 | 43
19 | O=C(NCS(=O)(=O)O)c1ccccc1Nc1ccc2c(/C=C/c3ccccn3)n[nH]c2c1 | 2 | -3
20 | CNC(=O)c1ccccc1Nc1ccc2c(/C=C/c3ccccn3)n[nH]c2c1 | 8 | 21
21 | O=C(Nc1nccc2cccnc12)c1ccccc1Sc1ccc2c(/C=C/c3ccccn3)n[nH]c2c1 | -3 | 
22 | O=C(N[C@@H](CO)c1ccccc1)c1ccccc1Sc1ccc2c(/C=C/c3ccccn3)n[nH]c2c1 | -17 | 
23 | CC(C)Oc1ccc(NC(=O)c2ccccc2Sc2ccc3c(/C=C/c4ccccn4)n[nH]c3c2)cc1 | -9 | 
24 | CCCCC(NC(=O)c1ccccc1Sc1ccc2c(/C=C/c3ccccn3)n[nH]c2c1)C(=O)NO (stereo not given) | 0 | 
25 | Cc1cc(NC(=O)c2ccccc2Sc2ccc3c(/C=C/c4ccccn4)n[nH]c3c2)ccc1C(C)C | 6 | 
26 | C#CCNC(=O)c1ccccc1Nc1ccc2c(/C=C/c3ccccn3)n[nH]c2c1 | 95 | 
27 | CC1(C)C2CC[C@H](CNC(=O)c3ccccc3Sc3ccc4c(/C=C/c5ccccn5)n[nH]c4c3)C1C2 (stereo not given in full) | -19 | 
28 | C[C@H](NC(=O)c1ccccc1Sc1ccc2c(/C=C/c3ccccn3)n[nH]c2c1)c1ccc2ccccc2c1 | -8 | 

Row | Compound | inhibition at 0.0005 µM [1] [%] | inhibition at 0.002 µM [2] [%]
29 | O=C(NNC(=O)c1ccccc1Nc1ccc2c(/C=C/c3ccccn3)n[nH]c2c1)c1ccccn1 | 69 | 
30 | O=C(NCC12CC3CC(CC(C3)C1)C2)c1ccccc1Sc1ccc2c(/C=C/c3ccccn3)n[nH]c2c1 | 1 | 
31 | Cc1c(Cl)cccc1NC(=O)c1ccccc1Sc1ccc2c(/C=C/c3ccccn3)n[nH]c2c1 | 9 | 
32 | Cc1ccc(Cl)cc1NC(=O)c1ccccc1Sc1ccc2c(/C=C/c3ccccn3)n[nH]c2c1 | 22 | 
33 | O=C(N[C@H](CO)c1ccccc1)c1ccccc1Sc1ccc2c(/C=C/c3ccccn3)n[nH]c2c1 | 18 | 
34 | CCONC(=O)c1ccccc1Nc1ccc2c(/C=C/c3ccccn3)n[nH]c2c1 | 72 | 
35 | CCCCCNC(=O)c1ccccc1Nc1ccc2c(/C=C/c3ccccn3)n[nH]c2c1 | 49 | 
36 | O=C(N[C@@H]1c2ccccc2C[C@@H]1O)c1ccccc1Sc1ccc2c(/C=C/c3ccccn3)n[nH]c2c1 | -6 | 
37 | CC(C)c1cccc(NC(=O)c2ccccc2Sc2ccc3c(/C=C/c4ccccn4)n[nH]c3c2)c1 | 8 | 
38 | O=C(NC[C@@H]1CCCO1)c1ccccc1Sc1ccc2c(/C=C/c3ccccn3)n[nH]c2c1 | -8 | 
39 | O=C(N[C@@H]1C[C@H]1c1ccccc1)c1ccccc1Sc1ccc2c(/C=C/c3ccccn3)n[nH]c2c1 (racemic) | 10 | 
40 | C[C@@H](NC(=O)c1ccccc1Sc1ccc2c(/C=C/c3ccccn3)n[nH]c2c1)c1ccc2ccccc2c1 | 1 | 
41 | C[N+](C)(C)NC(=O)c1ccccc1Nc1ccc2c(/C=C/c3ccccn3)n[nH]c2c1 | 8 | 
42 | O=C(NC[C@H]1CCCO1)c1ccccc1Sc1ccc2c(/C=C/c3ccccn3)n[nH]c2c1 | -11 | 
43 | Cc1cccc(CNC(=O)c2ccccc2Nc2ccc3c(/C=C/c4ccccn4)n[nH]c3c2)c1 | 19 | 
44 | CCCCc1ccc(NC(=O)c2ccccc2Sc2ccc3c(/C=C/c4ccccn4)n[nH]c3c2)cc1 | -22 | 
45 | O=C(NC[C@@H](O)c1ccccc1)c1ccccc1Sc1ccc2c(/C=C/c3ccccn3)n[nH]c2c1 | 2 | 
46 | CC(C)(C)CC(C)(C)NC(=O)c1ccccc1Sc1ccc2c(/C=C/c3ccccn3)n[nH]c2c1 | 0 | 
47 | Cc1ccc(C(N)=O)cc1NC(=O)c1ccccc1Sc1ccc2c(/C=C/c3ccccn3)n[nH]c2c1 | 15 | 
48 | O=C(N[C@H]1CC2CCC1C2)c1ccccc1Sc1ccc2c(/C=C/c3ccccn3)n[nH]c2c1 (stereo not given in full) | -9 | 
49 | C#CC(NC(=O)c1ccccc1Sc1ccc2c(/C=C/c3ccccn3)n[nH]c2c1)C1CCCCC1 (stereo not given) | 3 | 
50 | O=C(Nc1cccc(-c2nnco2)c1)c1ccccc1Sc1ccc2c(/C=C/c3ccccn3)n[nH]c2c1 | -23 | 
51 | O=C(Nc1c(Cl)cccc1Cl)c1ccccc1Sc1ccc2c(/C=C/c3ccccn3)n[nH]c2c1 | -45 | 
52 | COc1ccc(NC(=O)c2ccccc2Sc2ccc3c(/C=C/c4ccccn4)n[nH]c3c2)cc1 | 4 | 
53 | O=C(Nc1ccc(O)cc1O)c1ccccc1Sc1ccc2c(/C=C/c3ccccn3)n[nH]c2c1 | 20 | 
54 | CC(C)(C)OC(=O)C(C)(C)NC(=O)c1ccccc1Sc1ccc2c(/C=C/c3ccccn3)n[nH]c2c1 | 6 | 
55 | O=C(Nc1ccc(F)c(F)c1)c1ccccc1Sc1ccc2c(/C=C/c3ccccn3)n[nH]c2c1 | -38 | 
